Test results from paper PMC6968694 (Emerging Microbes & Infections, 2020).

Target: T1, MtbPurT (Mycobacterium tuberculosis, UniProt P95197)
T1 construct: gene purT
Assay: biochemical

T1 sequence (P95197 entry or part of it): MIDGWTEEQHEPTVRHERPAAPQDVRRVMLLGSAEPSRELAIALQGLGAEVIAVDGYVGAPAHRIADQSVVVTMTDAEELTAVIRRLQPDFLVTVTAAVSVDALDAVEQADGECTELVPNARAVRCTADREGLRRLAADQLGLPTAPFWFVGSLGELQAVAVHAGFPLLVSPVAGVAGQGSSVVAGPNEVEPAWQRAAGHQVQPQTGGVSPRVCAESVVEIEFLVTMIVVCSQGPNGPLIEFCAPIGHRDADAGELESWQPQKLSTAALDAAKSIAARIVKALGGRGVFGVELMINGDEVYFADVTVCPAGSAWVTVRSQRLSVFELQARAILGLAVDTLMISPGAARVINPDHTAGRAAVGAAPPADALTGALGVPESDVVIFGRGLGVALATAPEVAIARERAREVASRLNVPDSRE

Nc1ncnc2c1ncn2[C@@H]1O[C@H](CO[P@](=O)(O)O[P@](=O)(O)O[P@@](=O)(O)S)[C@@H](O)[C@H]1O [ATPγS]
Kd: 207 ± 8.02 µM
